Measurements published in patent US12162872B2, “Cycloalkylurea derivative” (Sumitomo Pharma Co., Ltd., priority 2019, dated 2024).

These compounds were tested against T1, Human orexin receptor type 2 (Homo sapiens, UniProt O43614) (assay: Test 1: Evaluation of agonist activity for orexin receptor type 2 (aequorin luminescence, intracellular calcium mobilization in CHO cells)). Details: relative percentage of luminescence for the luminescence (100%) of Orexin A (100 pM); CHO cells transiently expressing human orexin receptor type 2 and apoaequorin; Orexin A Lot. 641114.
T1 construct: expressed in transfected cells; host or cells: CHO cells (transient expression)
T1 sequence (O43614 1-444): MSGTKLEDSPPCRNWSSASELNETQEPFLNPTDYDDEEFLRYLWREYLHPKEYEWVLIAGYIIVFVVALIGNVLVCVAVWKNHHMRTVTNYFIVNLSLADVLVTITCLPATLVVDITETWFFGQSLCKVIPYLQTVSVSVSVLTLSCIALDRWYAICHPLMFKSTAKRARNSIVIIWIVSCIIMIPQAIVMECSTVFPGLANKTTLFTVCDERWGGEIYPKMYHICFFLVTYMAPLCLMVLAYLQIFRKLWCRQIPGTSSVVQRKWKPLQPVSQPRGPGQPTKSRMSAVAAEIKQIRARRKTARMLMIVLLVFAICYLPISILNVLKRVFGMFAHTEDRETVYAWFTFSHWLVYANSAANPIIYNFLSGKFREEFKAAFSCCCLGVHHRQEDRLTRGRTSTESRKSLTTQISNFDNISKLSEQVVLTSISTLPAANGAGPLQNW
Assay type: cell-based
How it was run: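 CHO cells transiently expressing human OX2 receptor and apoaequorin, seeded 16-22 h, loaded with 1 μM coelenterazine hcp for 2 h at room temperature. Compound added in Hanks/20 mM HEPES/0.1% BSA, 0.1% DMSO final, and calcium luminescence measured. Activity expressed as percent of the 100 pM Orexin A response.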

| agonist activity (%) | SMILES |
| --- | --- |
| 204 | CC(C)N1CC[C@@H](O[C@H]2CCCC(F)(F)[C@@H]2NC(=O)N2CCC(C)(c3noc(C4CC4)n3)CC2)C1 [Example 64, 4-(5-cyclopropyl-1,2,4-oxadiazol-3-yl)-N-[(1R,6S)-2,2-difluoro-6-{[(3R)-1-(propan-2-yl)pyrrolidin-3-yl]oxy}cyclohexyl]-4-methylpiperidine-1-carboxamide] |
| 144 | CC(C)N1CCN([C@H]2CCCC(F)(F)[C@@H]2NC(=O)N2CCC(C)(c3noc([C@@H]4C[C@@H]4F)n3)CC2)CC1 [Example 66, N-{(1R,6S)-2,2-difluoro-6-[4-(propan-2-yl)piperazin-1-yl]cyclohexyl}-4-{5-[(1S,2S)-2-fluorocyclopropyl]-1,2,4-oxadiazol-3-yl}-4-methylpiperidine-1-carboxamide] |
| 175 | Cc1ccc(C2(C)CCN(C(=O)N[C@@H]3[C@@H](O[C@@H]4CCN(C(C)C)C4)CCCC3(F)F)CC2)cc1 [Example 67, N-[(1R,6S)-2,2-difluoro-6-{[(3R)-1-(propan-2-yl)pyrrolidin-3-yl]oxy}cyclohexyl]-4-methyl-4-(4-methylphenyl)piperidine-1-carboxamide] |
| 156 | CC(C)N1CCN([C@H]2CCCC(F)(F)[C@@H]2NC(=O)N2CCC(C)(c3noc([C@H]4C[C@H]4C)n3)CC2)CC1 [Example 68, N-{(1R,6S)-2,2-difluoro-6-[4-(propan-2-yl)piperazin-1-yl]cyclohexyl}-4-methyl-4-{5-[(1S,2R)-2-methylcyclopropyl]-1,2,4-oxadiazol-3-yl}piperidine-1-carboxamide] |
| 161 | CC(C)N1CCN([C@H]2CCCC(F)(F)[C@@H]2NC(=O)N2CCC(C)(c3noc([C@@H]4C[C@@H]4C)n3)CC2)CC1 [Example 69, N-{(1R,6S)-2,2-difluoro-6-[4-(propan-2-yl)piperazin-1-yl]cyclohexyl}-4-methyl-4-{5-[(1R,2S)-2-methylcyclopropyl]-1,2,4-oxadiazol-3-yl}piperidine-1-carboxamide] |
| 141 | CC(C)N1CCN([C@H]2CCCC(F)(F)[C@@H]2NC(=O)N2CCC(C)(c3noc(CC(F)(F)F)n3)CC2)CC1 [Example 70, N-{(1R,6S)-2,2-difluoro-6-[4-(propan-2-yl)piperazin-1-yl]cyclohexyl}-4-methyl-4-[5-(2,2,2-trifluoroethyl)-1,2,4-oxadiazol-3-yl]piperidine-1-carboxamide] |
| 199 | CC(C)N1CC[C@H](O[C@H]2CCCC(F)(F)[C@@H]2NC(=O)N2CCC(C)(c3noc(C4CC4)n3)CC2)C1 [Example 71, 4-(5-cyclopropyl-1,2,4-oxadiazol-3-yl)-N-[(1R,6S)-2,2-difluoro-6-{[(3S)-1-(propan-2-yl)pyrrolidin-3-yl]oxy}cyclohexyl]-4-methylpiperidine-1-carboxamide] |

| SMILES | agonist activity (%) |
| --- | --- |
| CC(C)N1CC2CCC(C1)N2[C@H]1CCCC(F)(F)[C@@H]1NC(=O)N1CCC(C)(c2noc(C3CC3)n2)CC1 [Example 62, 4-(5-cyclopropyl-1,2,4-oxadiazol-3-yl)-N-{(1R,6S)-2,2-difluoro-6-[3-(propan-2-yl)-3,8-diazabicyclo[3.2.1]octan-8-yl]cyclohexyl}-4-methylpiperidine-1-carboxamide] | 174 |
| Cc1ccc(C2(C)CCN(C(=O)N[C@@H]3[C@@H](N4C5CCC4CN(C(C)C)C5)CCCC3(F)F)CC2)cc1 [Example 63, N-{(1R,6S)-2,2-difluoro-6-[3-(propan-2-yl)-3,8-diazabicyclo[3.2.1]octan-8-yl]cyclohexyl}-4-methyl-4-(4-methylphenyl)piperidine-1-carboxamide] | 149 |
| CC(C)N1CC2CCC(C1)N2[C@H]1CCCC(F)(F)[C@@H]1NC(=O)N1CCC(C)(c2cc(C3CC3)on2)CC1 [Example 65, 4-(5-cyclopropyl-1,2-oxazol-3-yl)-N-{(1R,6S)-2,2-difluoro-6-[3-(propan-2-yl)-3,8-diazabicyclo[3.2.1]octan-8-yl]cyclohexyl}-4-methylpiperidine-1-carboxamide] | 155 |
